# Experimental data taken from US20030088077A1, “Metal chelated dyestuff for inkjet recording and aqueous inkjet recording liquid using the same” (MITSUBISHI CHEMICAL CORPORATION, priority 1999, published 2003).
# Legend:
# [1] = Indoor discoloring and fading property of a printed image (ozone resistance); type: physicochemical; settings: ozone concentration 3 ppm, humidity 50 to 60%, 2 hours, light-shielded; specialized photoprint paper
# Method: (b) Indoor discoloring and fading property of a printed image (ozone resistance):
# In a light-shielded tank having an ozone concentration of 3 ppm, a printed matter was left on standing under a humidity of 50 to 60% for 2 hours, and the degree of discoloring and fading before and after the standing was measured by Macbeth densitometer (Gretag Macbeth SPM50, manufactured by Macbeth), and quantified as the form of a ΔE value. In the case of the specialized photoprint paper, a good result was obtained at the above measurement wherein the ΔE value was 11.2.
# [2] = Light resistance of a recorded image (xenon fade-meter); type: physicochemical; settings: 150 to 160 kJ/m^2 for 80 hours, specialized photoprint paper, larger value = more fading
# Method: (a) Light resistance of a recorded image:
# Using a xenon fade-meter (manufactured by Atlas), a recording paper was irradiated at an irradiation energy of 150 to 160 kJ/m^2 for 80 hours, and the degree of discoloring and fading before and after the irradiation was measured by Macbeth densitometer (Gretag Macbeth SPM50, manufactured by Macbeth), and quantified as the form of a ΔE value. Incidentally, the ΔE value is a numerical value expressing the degree of discoloring and fading. That is, the larger the value is, the larger the degree of discoloring and fading is and the lower the light fastness of the image is. In the case of the specialized photoprint paper, a good result was obtained at the above measurement wherein the ΔE value was 2.1.
structure (smiles),measurement,setting,value
N#Cc1nc(/N=N/c2ccc(N(CCC(=O)[O-])CCC(=O)[O-])cc2N)[nH]c1C#N.[Na+].[Na+] [Comparative dyestuff b],Indoor discoloring & fading property (ΔE),[1],4.3
same,Light resistance (ΔE),[2],7.0
